Results on two molecules are retold here after patent US10350210B2, “EGFR and ALK dual inhibitor” (PRECEDO PHARMACEUTICALS CO., LTD, priority 2015, dated 2019).

“Also recorded” adds a separate entry of the source. A value given as a limit tells only on which side of the number the result lay.

The test system of one data set is HCC827. As to the kind of experiment: Growth of cancer cells (Cell Titer-Glo viability), HCC827. Format: cell-based. Particulars: Homo sapiens; HCC827 (mutant EGFR del19), 72 hrs. Put shortly:
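Human kinase sequences were PCR-amplified, fused to an N-terminal TEL fragment, and stably introduced into murine BaF3 by retrovirus. IL-3 was then removed to make growth kinase-dependent. Compound effects on these cells and on EGFR-mutant HCC827 and NCI-H3255 were scored by CellTiter-Glo luminescence.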

For another data set, the system named is A549. As to the kind of experiment: Effect on cell apoptosis (Western Blot, PARP and Caspase 3 cleavage), A549. Format: cell-based, human. The conditions noted are these: A549 (wild-type EGFR), 24 hours. The source says: In order to confirm whether the death of cells is through apoptosis or necrosis after administration of drugs, non-small cell lung cancer cell A549 (expressing wild-type EGFR gene), non-small cell lung cancer cell line H1975 (expressing EGFR L858R/T790M double mutant gene), non-small cell lung cancer cell line H3255 (expressing EGFR L858R mutant gene), non-small cell lung cancer cell line H3122 (expressing ALK gene) cell line, and non-small cell lung cancer cell line PC-9 (expressing EGFR delE746_A750 mutant gene) were tested for effect of Compound 1 on cleavage of poly ADP-ribose polymerase PARP which is a DNA repair enzyme and Caspase 3, which were closely related to cell apoptosis. […] Western Blot was used to detect the effect of various concentrations of drugs at various time points on cleavage of poly ADP-ribose polymerase PARP which is a DNA repair enzyme and Caspase 3.
In general terms: In western blotting, separated proteins are transferred to a membrane and probed.

The subject of data set [1] is non-small cell lung cancer cell PC-9 subcutaneous tumors. As to the kind of experiment: Mouse tumor model of non-small cell lung cancer cell PC-9. Format: in vivo. The conditions noted are these: PC-9 tumor model; for tumor inhibition rate: Bal b/c mice, after 8 days of administration. As to the method: 24 Bal b/c female mice, 4-6 weeks old, were purchased from Shanghai SLAC Laboratory Animal Co., Ltd., and maintained in an SPF laboratory. Drinking water and bedding were both sterilized by autoclaving. All operations involving the mice were performed under aseptic conditions. At day 0, 5×10^6 non-small cell lung cancer cells PC9 (purchased from ATCC) were injected subcutaneously into the left flank of all mice. At day 15, all mice were divided into four groups (6 mice per group), and the first group of mice were orally administered with methyl cellulose (HKI) solvent, the second group of mice were orally administered with Compound 1 at a dose of 25 mg/kg mouse weight, the third group of mice were orally administered with Compound 1 at a dose of 50 mg/kg mouse weight, and the fourth group of mice were orally administered with Compound 1 at a dose of 100 mg/kg mouse weight daily. Starting from the administration, the length/width of the subcutaneous tumor was measured daily with a vernier caliper, and the weight of the mice was recorded daily to observe the effect of Compound 1 on the body weight of the mice. The mice were sacrificed at day 36 and the subcutaneous tumors were collected. The tumors were weighed, and then the tumor tissues were used to prepare protein lysates for use. The growth trend of the subcutaneous tumor within 16-36 days was plotted, wherein the tumor volume was calculated as length×width×width/2 mm^3.

The subject of the next data set is NCI-H2228. Kind of data set: Growth of cancer cells (Cell Titer-Glo viability), NCI-H2228. Format: cell-based. Particulars: Homo sapiens; NCI-H2228 (wild-type ALK), 72 hrs. (In ATP-based viability assays light output follows the ATP content of the culture.)

One may read the GI50 as the concentration that inhibits growth by half. Low values mean more potent growth inhibition, high ones less potent growth inhibition. The molecule `C=CC(=O)Nc1cc(Nc2ncc(Cl)c(Nc3ccccc3S(=O)(=O)C(C)C)n2)c(OC)cc1N1CCN(CC)CC1` [Compound 1, N-(5-(5-chloro-4-(2-(isopropylsulfonyl)phenylamino)pyrimidin-2-ylamino)-2-(4-ethylpiperazin-1-yl)-4-methoxyphenyl)acrylamide] returned a GI50 in the data set with HCC827 of 3 nM. Besides, in the data set with A549, the “cleavage of PARP or Caspase 3 (apoptosis)” value is reported as “not observed”. Further, the tumor inhibition rate is on record as 89.8% in data set [1] (oral daily 25 mg/kg), 95.1% in data set [1] (oral daily 50 mg/kg) and 98.7% in data set [1] (oral daily 100 mg/kg). Also, the “body weight of the mice” value in data set [1] (oral daily 25 mg/kg, 25 mg/kg) is on record as “barely affect the body weight; also recorded: did not decrease”; in data set [1] (oral daily 50 mg/kg), “did not decrease”.

For the molecule `C=CC(=O)Nc1cc(Nc2ncc(Cl)c(Nc3ccccc3S(=O)(=O)C(C)C)n2)c(OC)cc1N1CCCN(C)CC1` [Compound 10, N-(5-(5-chloro-4-(2-(isopropylsulfonyl)phenylamino)pyrimidin-2-ylamino)-4-methoxy-2-(4-methyl-1,4-homopiperazin-1-yl)phenyl)acrylamide], in the data set with NCI-H2228, the GI50 was below 3 nM.
